Assay results taken from patent US8455510B2.
“And” between values parts separate entries of the source, which are not always exact repeats. Equal values may be shown once. Read-outs that look alike come from different tables or passages of the source.

What was measured:
[1] = MTT cytotoxicity on mouse spleen lymphocytes; format: cell-based, BALB/c mice; conditions: BALB/c, MTT assay
Description: 3-(4,5-dimethylthylthiazol-2-yl)-2,5-diphenyl tetrazolium bromide (MTT) assay was adopted to measure the effect of the in vitro administered compound on the activity of the spleen lymphocytes of normal mice, and evaluate the cytotoxicity of the compound.
They were dissolved in DMSO before testing to prepare a stock solution, which was diluted to a desired concentration with the medium when use.
100 μl cell suspension of mouse spleen lymphocytes was inoculated on a 96-well plate (4×10^5 per well), and the compound at different concentrations was added therein, including additional solvent control or medium background control, wherein, the total volume of each well was 200 μl. After the 96-well plate was placed in an incubator at 37° C. with 5% CO2 for 48 hours, 20 μl (5 mg/ml) of MTT solution was added 6 to 7 hours before the end of incubation. Then after the incubation was completed, 100 μl of supernatant was removed for each well, and 100 μl of […] was added therein. After the 96-well plate was placed in the incubator for 6 to 7 hours, OD values were determined on an ELISA Reader at the wavelength of 570 nm.

[2] = system: DNFB-induced delayed type hypersensitivity reaction; assay: DNFB-induced delayed type hypersensitivity reaction in mice; format: in vivo, BALB/c mice; conditions: 1.5 mg/kg/d, intraperitoneal injection; model control 0.175 mm
Description: The delayed type hypersensitivity (DTH) reaction in mice was induced by DNFB to evaluate the inhibition effect of the compound on DTH in vivo. […] Preparation method: the compound was dissolved in anhydrous alcohol to prepare a stock solution (50 mg/ml), which was diluted to the desired concentration when use by using a solution of 5% PEG400, 5% Tween-80 in sterile water as a solvent. […] DNFB combined with dermal protein to form a complete antigen after sensitizing on feet of mice. One week later, mice were attacked by DNFB on ears to induce a local delayed allergic reaction, i.e., the delayed type hypersensitivity reaction to cause ear swelling, while the delayed type hypersensitivity reaction would not be observed on the ear which had not been attacked. Therefore, the ear swelling can reflect the level of the delayed type hypersensitivity reaction in mice induced by DNFB. (1) 20 μl of 0.5% DNFB solution in a mixture of acetone and olive oil (4:1) as a solvent was applied on both hind legs of mice for sensitization. […] (4) Thickness of the left and right ears of the mice was measured by a micrometer screw gauge, and the swelling was calculated by subtracting the thickness of the left ear from thickness of the right ear.

[3] = Distribution profile of prototype drug and rapamycin in plasma, liver and tumor of nude mice (LC-MS); format: in vivo; design: AUC0-t (ng · h/g or ng · h/ml): concentration or dose not given beside the values; conditions: for concentration at 0.5 h / concentration at 2 h / concentration at 5 h: nude, mouse; for AUC0-t (ng · h/g or ng · h/ml): substance determined: Sirolimus
T Cells = assay: Immunosuppressive activity assay: T cells inhibitory activity; format: cell-based; conditions: T-cell; Table 10
[4] = system: allogeneic antigen-induced mouse spleen lymphocytes; assay: Mixed lymphocyte culture, 3H-TdR incorporation; format: cell-based, C57BL/6 and BALB/C mice
Description: Preparation of Stimulator Cells: a Cell Suspension of Balb/C Mouse Spleen Lymphocytes was irradiated by cesium 137 at 3000 Rads using a Gamma radiometer (Gammacell 3000) to make the cells lose their proliferation ability. After washed by RPMI-1640 for 2 times, the cell concentration was adjusted to 5×10^6/ml.
Preparation of responder cells: C57BL/6 mouse spleen lymphocytes were used as the responder cells, and the cell concentration was 5×10^6/ml.
Mixed lymphocyte culture: 50 μl cell suspension of C57BL/6 mouse spleen lymphocytes was inoculated on a 96-well plate, and 50 μl cell suspension of BALB/C mouse spleen lymphocytes treated by cesium 137 was added therein, followed by addition of 50 μl compound at different concentrations. The total volume for each well was 200 μl. If the total volume was less than 200 μl, it was supplemented with RMPI-1640 medium. The tests were divided into 3 groups, i.e., BALB/C mouse group, C57BL/6 mouse group and BALB/C and C57BL/6 mice mixed culture group. The test was carried out in triplicate wells for each concentration, and included control wells without the compound, with only the stimulator cells and with only the responder cells. The 96-well plate was incubated in an incubator at 37° C. with 5% CO2 for 3 to 5 days. 8 hours before the end of incubation, 25 μl of ^3H-thymidine (10 μCi/ml) was added in each well. After the incubation was completed, cells were harvested by a cell harvester on a glass fiber film. After addition of a scintillation fluid, the amount of ^3H-TdR incorporated in cell DNA was determined by a Beta cell counter (MicroBeta Trilux, PerkinElmer), and the cell proliferation was represented as a cpm value.

[5] = 0.5 h after administration, individual animals
[6] = 2.0 h after administration, individual animals
[7] = 5.0 h after administration, individual animals
[8] = 12 h after administration, individual animals
[9] = 48 h after administration, individual animals

## CO[C@H]1C[C@@H]2CC[C@@H](C)[C@@](O)(O2)C(=O)C(=O)N2CCCC[C@H]2C(=O)O[C@H]([C@H](C)C[C@@H]2CC[C@@H](OC(=O)OCC(O)CO)[C@H](OC)C2)CC(=O)[C@H](C)/C=C(\C)[C@@H](O)[C@@H](OC)C(=O)[C@H](C)C[C@H](C)/C=C/C=C/C=C/1C (stereo partly shown) [Y31]
[1]
  CC50 at 48 h: 36.9 µM
[2]
  average ear swelling degree: 0.129 mm
[3]; [5]
  Y31 (prototype) concentration, Blood Plasma: 2.47 ng/mL and 3.03 ng/mL
  Y31 (prototype) concentration, Liver: 14.3 ng/g and 6.24 ng/g and 8.61 ng/g
  Y31 (prototype) concentration, Tumor: BLQ (BLQ: below the limit of Quantitation, 0.2 ng/ml (blood plasma); 1.0 ng/g(tissue))
[3]; [6]
  Y31 (prototype) concentration, Blood Plasma: 0.70 ng/mL and 0.58 ng/mL and 0.20 ng/mL
  Y31 (prototype) concentration, Liver: 13.4 ng/g and 17.4 ng/g
  Y31 (prototype) concentration, Tumor: BLQ (BLQ: below the limit of Quantitation, 0.2 ng/ml (blood plasma); 1.0 ng/g(tissue))
[3]; [7]
  Y31 (prototype) concentration, Blood Plasma: BLQ (BLQ: below the limit of Quantitation, 0.2 ng/ml (blood plasma))
  Y31 (prototype) concentration, Liver: 0.88 ng/g and 0.91 ng/g and 2.16 ng/g
  Y31 (prototype) concentration, Tumor: BLQ (BLQ: below the limit of Quantitation, 0.2 ng/ml (blood plasma); 1.0 ng/g(tissue))
[3]; [8]
  Y31 (prototype) concentration, Blood Plasma: BLQ (BLQ: below the limit of Quantitation, 0.2 ng/ml (blood plasma))
  Y31 (prototype) concentration, Liver: BLQ (BLQ: below the limit of Quantitation, 0.2 ng/ml (blood plasma); 1.0 ng/g(tissue))
  Y31 (prototype) concentration, Tumor: BLQ (BLQ: below the limit of Quantitation, 0.2 ng/ml (blood plasma); 1.0 ng/g(tissue))
[3]; [9]
  Y31 (prototype) concentration, Blood Plasma: BLQ (BLQ: below the limit of Quantitation, 0.2 ng/ml (blood plasma))
  Y31 (prototype) concentration, Liver: BLQ (BLQ: below the limit of Quantitation, 0.2 ng/ml (blood plasma); 1.0 ng/g(tissue))
  Y31 (prototype) concentration, Tumor: BLQ (BLQ: below the limit of Quantitation, 0.2 ng/ml (blood plasma); 1.0 ng/g(tissue))
[3]; after administration to nude mice
  maximum concentration of the prototype drug in blood plasma and tissues: less than 20 ng/ml or ng/g
[3]; blood plasma and tissues
  prototype drug 5 hours after the administration: not detectable
[3]; liver, 0.5 h after administration, mean of 3 animals, read-out: Y31 (prototype) concentration, Liver, Mean Value
  concentration at 0.5 h: 9.72 ng/g
[3]; liver, 2.0 h after administration, individual animals, read-out: Y31 (prototype) concentration, Liver
  concentration at 2 h: 12.4 ng/g
[3]; liver, 2.0 h after administration, mean of 3 animals, read-out: Y31 (prototype) concentration, Liver, Mean Value
  concentration at 2 h: 14.4 ng/g
[3]; liver, 5.0 h after administration, mean of 3 animals, read-out: Y31 (prototype) concentration, Liver, Mean Value
  concentration at 5 h: 1.32 ng/g
[3]; plasma, 0.5 h after administration, individual animals, read-out: Y31 (prototype) concentration, Blood Plasma
  concentration at 0.5 h: 1.7 ng/mL
[3]; plasma, 0.5 h after administration, mean of 3 animals, read-out: Y31 (prototype) concentration, Blood Plasma, Mean Value
  concentration at 0.5 h: 2.4 ng/mL
[3]; plasma, 2.0 h after administration, mean of 3 animals, read-out: Y31 (prototype) concentration, Blood Plasma, Mean Value
  concentration at 2 h: 0.49 ng/mL
[3]; plasma, 5.0 h after administration, individual animals, read-out: Y31 (prototype) concentration, Blood Plasma
  concentration at 5 h: 0.18 ng/mL
[3]; Liver
  AUC0-t (ng · h/g or ng · h/ml): 4031 ng·h/g
[3]; Tumor
  AUC0-t (ng · h/g or ng · h/ml): 2948 ng·h/g
T Cells
  IC50: 0.05 µM
[4]; 0.1342 nM
  CPM Mean value: 1338
[4]; 0.3355 nM
  CPM Mean value: 1296
[4]; 0.8389 nM
  CPM Mean value: 1202
[4]; 2.0972 nM
  CPM Mean value: 1137
[4]; 5.2429 nM
  CPM Mean value: 1131
[4]; 13.107 nM
  CPM Mean value: 1137
[4]; 32.768 nM
  CPM Mean value: 1189
[4]; 81.9 nM
  CPM Mean value: 1314
[4]; 204.8 nM
  CPM Mean value: 1090
[4]; 512 nM
  CPM Mean value: 1436
[4]; 1280 nM
  CPM Mean value: 1209
[4]; 3200 nM
  CPM Mean value: 1132
[4]; 8000 nM
  CPM Mean value: 1190
[4]; 20000 nM
  CPM Mean value: 815
[4]; Mus musculus, Lymphocyte, 0.1342 nM
  inhibition at 0.0001342 µM: 82%
[4]; Mus musculus, Lymphocyte, 0.3355 nM
  inhibition at 0.0003355 µM: 82%
[4]; Mus musculus, Lymphocyte, 0.8389 nM
  inhibition at 0.0008389 µM: 84%
[4]; Mus musculus, Lymphocyte, 2.0972 nM
  inhibition at 0.0020972 µM: 85%
[4]; Mus musculus, Lymphocyte, 5.2429 nM
  inhibition at 0.0052429 µM: 85%
[4]; Mus musculus, Lymphocyte, 13.107 nM
  inhibition at 0.013107 µM: 85%
[4]; Mus musculus, Lymphocyte, 32.768 nM
  inhibition at 0.032768 µM: 84%
[4]; Mus musculus, Lymphocyte, 81.9 nM
  inhibition at 0.0819 µM: 82%
[4]; Mus musculus, Lymphocyte, 204.8 nM
  inhibition at 0.2048 µM: 85%
[4]; Mus musculus, Lymphocyte, 512 nM
  inhibition at 0.512 µM: 80%
[4]; Mus musculus, Lymphocyte, 1280 nM
  inhibition at 1.28 µM: 84%
[4]; Mus musculus, Lymphocyte, 3200 nM
  inhibition at 3.2 µM: 85%
[4]; Mus musculus, Lymphocyte, 8000 nM
  inhibition at 8 µM: 84%
[4]; Mus musculus, Lymphocyte, 20000 nM
  inhibition at 20 µM: 89%
